Measured values: publication PMC11542186, “Pin1 WW Domain Ligand Library Synthesized with an Easy Solid-Phase Phosphorylating Reagent” (Biochemistry, 2024)
Where a SMILES comes first, the peptide text is derived from it. [ ]: non-standard residue; d: D form. The star is where a group is joined. pS = N[CH](COP(=O)(O)O)C(=O)O; Agmatine = N=C(N)NCCCCN*; Morpholide = C1CN(*)CCO1; Piperidide = C1CCN(*)CC1; Pyrrolidide = C1CCN(*)C1

target: T1, Pin1 WW domain (Pin1–HRP) (Homo sapiens, UniProt Q13526); test: ELEBA primary screening assay of the library; type: binding; settings: separate plate of groups A and B (L2 control 85.0443); crude library members; DMSO = 100%; mean of N = 2
T1 construct: purchased R&D Systems
T1 sequence (Q13526 whole entry, the tested form may be a part): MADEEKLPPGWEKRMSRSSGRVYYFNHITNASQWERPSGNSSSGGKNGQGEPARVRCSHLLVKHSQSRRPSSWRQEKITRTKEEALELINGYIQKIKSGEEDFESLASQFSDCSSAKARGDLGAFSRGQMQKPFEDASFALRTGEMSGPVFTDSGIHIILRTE
Procedure: The library was screened by the ELEBA we reported previously.[44] The crude products resulting from diethyl ether precipitation were used for the primary and secondary ELEBA without additional purification. The concentrations of the crude products were estimated based on quantitative yields; actual concentrations were thus lower, depending on yield and purity. The library products were dissolved in DMSO as stock solutions for assays. […] Recombinant human Pin1 conjugated to horseradish peroxidase (Pin1–HRP) was used in the binding assays.[44] Fmoc-VPRpTPVGGGK-NH2 L2 was used as the positive control and DMSO was used as the negative control on each plate. The percent of Pin1–HRP bound to the plate was calculated by normalizing the binding with DMSO to be 100%. In the primary assays (Figure S1), 14 of the best library members were identified: 1{2,d}, 1{18,f}, 1{20,f}, 1{10, l}, 1{13, l}, 1{18, l}, 1{20, l}, 1{10, n}, 1{18, n}, 1{19, n}, 1{2, n}, 1{20, n}, 1{14, o}, 1{3, o}. In the secondary assay, these ligands were measured again at 270 μM, and three hits, 1{2, d}, 1{18, l} and 1{2, n}, were chosen for further analysis (Figure 3).
The Pin1 WW domain ligand, Fmoc–VPRpTPVGGGK–NH2, (100 μL/well, 245 μM stock solution) was covalently attached to a 96-well plate through the ε-amino group of the Lys side chain at pH 11.0, as published.[44] Ligands were dissolved in DMSO at stock concentrations of ca. 50 mM by weight. Competitive binding with plate-linked Fmoc–VPRpTPVGGGK–NH2L1 of pSer–Pro dipeptides was measured at ca. 600 μM for primary screening. In the primary assays, all library members were screened with the crude products. 1{1-21, d} were measured as mixtures of cis- and trans-isomers. Library members synthesized from racemic reagents, such as 1{1-21, c}, 1{1-21, l}, 1{1-21, q}, 1{3, a-q} and 1{8, a-q} were measured as diastereomeric mixtures. The library members were dissolved in DMSO as stock solutions with a concentration of about 37 mM based on estimated yields. The DMSO stock solution of each compound (4 μL) was added into a solution of recombinant Pin1–HRP (R&D Systems) in a PBS buffer with 2% BSA (pH = 7.3). DMSO (4 μL) was used as a negative control. The final volume of the solution was 250 μL, the final concentration of Pin1–HRP was 200 pM, and the estimated final compound concentration was 590 μM. The resulting solution was preincubated for 30 min at ambient temperature, and was added into two wells (100 μL each, for assay in duplicate) of the ligand-linked plate. The solutions were incubated for another 1 h. The solutions were removed by inverting and shaking the plate, and the plate was washed with buffer ([…], and 0.05% Tween 20 in PBS at pH 7.3) three times. A 1:1 solution of hydrogen peroxide and 3,3,5,5′-tetramethylbenzidine (100 μL) was added into each plate well, and incubated in the dark for 20 min. A 2N H2SO4 solution (50 μL) was added to each well to quench the reaction, and the absorbance of was determined at 450 nm. The percentage of Pin1–HRP bound to the plate (% binding) was calculated by eq 1. To calculate the absorbance of a plate well in eq 1, the blank ligand-linked plate was predetermined at the same wavelength, and the absorbance of the blank well was subtracted from the absorbance of the same well containing the final solution. [drawing 2] 1 […]
The Fmoc-Ser(2- […]
cyanoethylphosphate)-OH product was cleaved from the resin with TFA. 1H NMR indicated the presence of the Fmoc group, implying that the substrate was successfully attached to the resin (data not shown). To develop the coupling methods, 2-(2-naphthyl)ethylamine and propionic acid were reacted with the pSer–Pro resin. The resulting propanoyl-pSer–Pro–(2-(2-naphthyl)ethyl)-amide (1H NMR below) was excluded from the library assays.
Figure S1 (following pages). Ligands (group A – O) were screening using ELEBA at ca. 266 µM.
Fmoc-VPRpTPVGGGK-NH2 L2 was used as positive control at 76-87 µM from stock solutions […]
of 4.3-4.8 mM. […]

Point of comparison: `CC(=O)NC(COP(=O)(O)O)C(=O)N1CCCC1C(=O)N1CCCC1` (stereo not drawn) [1{1,a}] (Ac-[pS]-Pro-Pyrrolidide; configuration not given here), “% of Pin1-HRP bound to plate-linked ligand” value 111.106%. Against it:
- CC(=O)N[C@@H](COP(=O)(O)O)C(=O)N1CCC[C@H]1C(=O)NC1CCN(Cc2ccccc2)CC1 [1{15,a}] — lower, 110.698%
- CC(=O)NC(COP(=O)(O)O)C(=O)N1CCCC1C(=O)NCCCn1ccnc1 (stereo not drawn) [1{12,a}] — lower, 109.194%
- CC(=O)NC(COP(=O)(O)O)C(=O)N1CCCC1C(=O)N(C)CC(C)c1ccccc1 (mixture of isomers) [1{3,a}] — higher, 118.382%
- CC(=O)N[C@@H](COP(=O)(O)O)C(=O)N1CCC[C@H]1C(=O)NNC(=O)c1ccco1 [1{18,a}] — lower, 102.518%
- O=C(C=Cc1c[nH]cn1)NC(COP(=O)(O)O)C(=O)N1CCCC1C(=O)NC1CCN(Cc2ccccc2)CC1 (stereo not drawn) [1{15,b}] — lower, 98.3254%
- CC(=O)N[C@@H](COP(=O)(O)O)C(=O)N1CCC[C@H]1C(=O)NCCc1c[nH]c2ccccc12 [1{14,a}] — higher, 120.534%
- CC(=O)N[C@@H](COP(=O)(O)O)C(=O)N1CCC[C@H]1C(=O)N1CCCCC1 [1{19,a}] (Ac-[pS]-Pro-Piperidide) — higher, 116.14%
- CC(=O)NC(COP(=O)(O)O)C(=O)N1CCCC1C(=O)NCCCN1CCCCC1C (mixture of isomers) [1{8,a}] — lower, 108.888%
- CCN(CC)CCCCN(C)C(=O)[C@@H]1CCCN1C(=O)[C@H](COP(=O)(O)O)NC(C)=O [1{7,a}] — lower, 99.5048%
- O=C(C=Cc1c[nH]cn1)NC(COP(=O)(O)O)C(=O)N1CCCC1C(=O)NCCc1c[nH]c2ccccc12 (stereo not drawn) [1{14,b}] — lower, 109.953%
- NCCCCCCNC(=O)[C@@H]1CCCN1C(=O)[C@H](COP(=O)(O)O)NC(=O)/C=C/c1c[nH]cn1 [1{11,b}] — lower, 79.8617%
- CN(CCc1ccccn1)C(=O)C1CCCN1C(=O)C(COP(=O)(O)O)NC(=O)C=Cc1c[nH]cn1 (stereo not drawn) [1{5,b}] — higher, 113.92%
- O=C(C=Cc1c[nH]cn1)NC(COP(=O)(O)O)C(=O)N1CCCC1C(=O)N1CCN(c2ncccn2)CC1 (stereo not drawn) [1{10,b}] — lower, 93.9893%
- CC(CN(C)C(=O)C1CCCN1C(=O)C(COP(=O)(O)O)NC(=O)C=Cc1c[nH]cn1)c1ccccc1 (mixture of isomers) [1{3,b}] — higher, 124.358%
- O=C(C=Cc1c[nH]cn1)NC(COP(=O)(O)O)C(=O)N1CCCC1C(=O)NCCCn1ccnc1 (stereo not drawn) [1{12,b}] — lower, 94.4757%
- O=C(C=Cc1c[nH]cn1)NC(COP(=O)(O)O)C(=O)N1CCCC1C(=O)Nc1ccc2[nH]ncc2c1 (stereo not drawn) [1{2,b}] — higher, 113.209%
- CC1CCCCN1CCCNC(=O)C1CCCN1C(=O)C(COP(=O)(O)O)NC(=O)C=Cc1c[nH]cn1 (mixture of isomers) [1{8,b}] — lower, 102.481%
- O=C(/C=C/c1c[nH]cn1)N[C@@H](COP(=O)(O)O)C(=O)N1CCC[C@H]1C(=O)NCCCN1CCOCC1 [1{17,b}] — lower, 94.8602%
- CC(=O)N[C@@H](COP(=O)(O)O)C(=O)N1CCC[C@H]1C(=O)N1CCOCC1 [1{20,a}] (Ac-[pS]-Pro-Morpholide) — higher, 115.484%
- CC(=O)NC(COP(=O)(O)O)C(=O)N1CCCC1C(=O)NCCCN1CCOCC1 (stereo not drawn) [1{17,a}] — higher, 117.069%
- O=C(C=Cc1c[nH]cn1)NC(COP(=O)(O)O)C(=O)N1CCCC1C(=O)N1CCCCC1 (stereo not drawn) [1{19,b}] — lower, 97.5722%
- CCN(CC)CCCCN(C)C(=O)[C@@H]1CCCN1C(=O)[C@H](COP(=O)(O)O)NC(=O)/C=C/c1c[nH]cn1 [1{7,b}] — lower, 108.279%
- CC(=O)NC(COP(=O)(O)O)C(=O)N1CCCC1C(=O)NCCCCNC(=N)N (stereo not drawn) [1{16,a}] (Ac-[pS]-Pro-Agmatine; configuration not given here) — higher, 112.945%
